# Patent US20060069132A1, “Azolecarboxamide herbicides” (priority 2004, published 2006)
# Tests used:
# [1] = test system: corn; experiment: Test B pre-/postemergence herbicide test; format: in vivo, Zea mays; conditions: for Plant response rating, Corn: preemergence; for Corn plant response rating: postemergence, visual rating, scale 0 (no effect) to 100 (complete control)
# Outline: (§1)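 Evaluation is visual, comparing treated with control plants on a scale where 0 means no effect and 100 means full control. Treatments were preemergence, or postemergence on seedlings 2–18 cm tall, and held 13–15 days in the greenhouse.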
# [2] = test system: large crabgrass; experiment: Test A pre-/postemergence herbicide test; format: in vivo, Digitaria sanguinalis
# Outline: (§2)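 Greenhouse injury scoring (0–100, complete control = 100) at approximately ten days follows simultaneous pre- and postemergence application. Soil received a directed spray after seeding; seedlings of 2–10 cm at the one- to two-leaf stage were sprayed to runoff.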
# [3] = test system: rice; experiment: Test B flooded paddy test; format: in vivo, Oryza sativa; conditions: 1000 g ai/ha, visual rating, scale 0 to 100 (0 no effect, 100 complete control), 13 to 15 days
# Outline: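 Each value is a visual 0–100 response rating taken against controls 13 to 15 days after treatment in the greenhouse. Plants received formulated chemical postemergence at the 1- to 4-leaf stage or, in flooded paddy, at the 2-leaf stage.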
# [4] = test system: pigweed; experiment: Test B pre-/postemergence herbicide test; format: in vivo, Amaranthus retroflexus; conditions: for Plant response rating, Pigweed: preemergence; for Pigweed plant response rating: postemergence, visual rating, scale 0 (no effect) to 100 (complete control)
# Outline: as §1
# [5] = test system: rice; experiment: Test B pre-/postemergence herbicide test; format: in vivo, Oryza sativa; conditions: preemergence, 125 g ai/ha; 0 to 100 scale, 0 is no effect, 100 is complete control
# Outline: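 Plants compared with untreated controls 13–15 days post-treatment and given a visual 0–100 injury score. Applications: preemergence to seeds; postemergence at 1- to 4-leaf (2–18 cm); paddy species flooded, 2-leaf stage. Vehicle non-phytotoxic, surfactant included.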
# [6] = test system: barnyardgrass; experiment: Test B flooded paddy test; format: in vivo, Echinochloa crus-galli; conditions: 1000 g ai/ha, visual rating, scale 0 to 100 (0 no effect, 100 complete control), 13 to 15 days
# Outline: (§3)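 Scale 0–100: zero equals no visible effect, 100 complete control, judged by eye relative to controls. Timing: 13 to 15 days in greenhouse post-treatment. Growth stage at spraying: two leaves (paddy) or one to four leaves, 2–18 cm (postemergence).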
# [7] = test system: large crabgrass; experiment: Test B pre-/postemergence herbicide test; format: in vivo, Digitaria sanguinalis; conditions: for Plant response rating, Crabgrass, Large: preemergence; for Crabgrass, Large plant response rating: postemergence, visual rating, scale 0 (no effect) to 100 (complete control)
# Outline: as §1
# [8] = test system: giant foxtail; experiment: Test B pre-/postemergence herbicide test; format: in vivo, Setaria faberi; conditions: for Plant response rating, Foxtail, Giant: preemergence; for Foxtail, Giant plant response rating: postemergence, visual rating, scale 0 (no effect) to 100 (complete control)
# Outline: as §1
# [9] = test system: wheat; experiment: Test B postemergence herbicide test; format: in vivo, Triticum aestivum; parameters: key to Wheat plant response rating: 0 = no effect, 100 = complete control; conditions: postemergence, visual rating, scale 0 (no effect) to 100 (complete control)
# Outline: as §3
# [10] = test system: blackgrass; experiment: Test B postemergence herbicide test; format: in vivo, Alopecurus myosuroides; conditions: postemergence, visual rating, scale 0 (no effect) to 100 (complete control)
# Outline: as §3
# [11] = test system: giant foxtail; experiment: Test A pre-/postemergence herbicide test; format: in vivo, Setaria faberi
# Outline: as §2
# [12] = test system: velvetleaf; experiment: Test B pre-/postemergence herbicide test; format: in vivo, Abutilon theophrasti; conditions: for Plant response rating, Velvetleaf: preemergence; for Velvetleaf plant response rating: postemergence, visual rating, scale 0 (no effect) to 100 (complete control)
# Outline: as §1
# [13] = test system: redroot pigweed; experiment: Test A pre-/postemergence herbicide test; format: in vivo, Amaranthus retroflexus
# Outline: as §2
# [14] = test system: Surinam grass; experiment: Test B pre-/postemergence herbicide test; format: in vivo, Urochloa decumbens; conditions: for Plant response rating, Surinam Grass: preemergence; for Surinam Grass plant response rating: postemergence, visual rating, scale 0 (no effect) to 100 (complete control)
# Outline: as §1
# [15] = test system: barnyardgrass; experiment: Test A pre-/postemergence herbicide test; format: in vivo, Echinochloa crus-galli
# Outline: as §2
# [16] = test system: barnyardgrass; experiment: Test B pre-/postemergence herbicide test; format: in vivo, Echinochloa crus-galli; conditions: for Plant response rating, Barnyardgrass: preemergence; for Barnyardgrass plant response rating: postemergence, visual rating, scale 0 (no effect) to 100 (complete control)
# Outline: (§4)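 Formulation: non-phytotoxic solvent mix with surfactant. Timing: preemergence on seed and postemergence on 2–18 cm plants, applied concurrently. Readout after 13–15 d greenhouse: visual 0–100 control rating against controls.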
# [17] = test system: lambsquarters; experiment: Test B pre-/postemergence herbicide test; format: in vivo, Chenopodium album; conditions: for Plant response rating, Lambsquarters: preemergence; for Lambsquarters plant response rating: postemergence, visual rating, scale 0 (no effect) to 100 (complete control)
# Outline: as §1
# [18] = test system: ducksalad; experiment: Test B flooded paddy test; format: in vivo, Heteranthera limosa; conditions: 1000 g ai/ha, visual rating, scale 0 to 100 (0 no effect, 100 complete control), 13 to 15 days
# Outline: as §3
# [19] = test system: morningglory; experiment: Test B pre-/postemergence herbicide test; format: in vivo, Ipomoea coccinea; conditions: for Plant response rating, Morningglory: preemergence; for Morningglory plant response rating: postemergence, visual rating, scale 0 (no effect) to 100 (complete control)
# Outline: as §4
# [20] = test system: small flower umbrella sedge; experiment: Test B flooded paddy test; format: in vivo, Cyperus difformis; conditions: 1000 g ai/ha, visual rating, scale 0 to 100 (0 no effect, 100 complete control), 13 to 15 days
# Outline: as §3
# [21] = test system: morningglory; experiment: Test A pre-/postemergence herbicide test; format: in vivo, Ipomoea spp.
# Outline: as §2
# [22] = test system: velvetleaf; experiment: Test A pre-/postemergence herbicide test; format: in vivo, Abutilon theophrasti
# Outline: as §2
# [23] = test system: wild oat; experiment: Test B postemergence herbicide test; format: in vivo, Avena fatua; conditions: postemergence, visual rating, scale 0 (no effect) to 100 (complete control)
# Outline: as §3
# [24] = test system: cocklebur; experiment: Test B pre-/postemergence herbicide test; format: in vivo, Xanthium strumarium; conditions: for Plant response rating, Cocklebur: preemergence; for Cocklebur plant response rating: postemergence, visual rating, scale 0 (no effect) to 100 (complete control)
# Outline: as §4
# [25] = 500 g ai/ha, visual rating 0-100, 0 no effect, 100 complete control
# [26] = 125 g ai/ha, 0 to 100 scale, 0 is no effect, 100 is complete control
# [27] = Postemergence, 500 g ai/ha, 0 to 100 scale, 0 no effect, 100 complete control
# [28] = Postemergence, 2000 g ai/ha, 0 to 100 scale, 0 no effect, 100 complete control
# [29] = Preemergence, 500 g ai/ha, visual rating, 0 to 100 scale (0 no effect, 100 complete control)
# [30] = Preemergence, 2000 g ai/ha, visual rating, 0 to 100 scale (0 no effect, 100 complete control)
# [31] = preemergence, 500 g ai/ha, visual injury, 0 to 100 scale (0 no effect, 100 complete control)
structure (smiles),measurement,setting,value
CC(=O)c1cc(NC(=O)c2cc(C(C)(C)C)nn2C)ccc1F [Compound 123],"Plant response rating, Corn",[1]; [25],0
same,Corn plant response rating,[1]; 125 g ai/ha,0
same,Corn plant response rating,[1]; 500 g ai/ha,0
same,"Plant response rating, Corn",[1]; [26],0
same,"Crabgrass, Large plant response rating",[2]; [27],10
same,"Plant response rating, Crabgrass, Large",[2]; [28],10
same,"Crabgrass, Large plant response rating",[2]; [29],15
same,"Crabgrass, Large plant response rating",[2]; [30],0
same,Rice plant response rating,[3],0
same,"Plant response rating, Pigweed",[4]; [25],0
same,Pigweed plant response rating,[4]; 125 g ai/ha,0
same,Pigweed plant response rating,[4]; 500 g ai/ha,0
same,"Plant response rating, Pigweed",[4]; [26],0
same,"Plant response rating, Rice",[5],0
same,Barnyardgrass plant response rating,[6],0
same,"Plant response rating, Crabgrass, Large",[7]; [25],0
same,"Crabgrass, Large plant response rating",[7]; 125 g ai/ha,0
same,"Crabgrass, Large plant response rating",[7]; 500 g ai/ha,0
same,"Plant response rating, Crabgrass, Large",[7]; [26],0
same,"Plant response rating, Foxtail, Giant",[8]; [25],0
same,"Foxtail, Giant plant response rating",[8]; 125 g ai/ha,0
same,"Foxtail, Giant plant response rating",[8]; 500 g ai/ha,0
same,"Plant response rating, Foxtail, Giant",[8]; [26],0
same,Wheat plant response rating,[9]; 125 g ai/ha,0
same,Wheat plant response rating,[9]; 500 g ai/ha,0
same,Blackgrass plant response rating,[10]; 125 g ai/ha,0
same,Blackgrass plant response rating,[10]; 500 g ai/ha,0
same,"Foxtail, Giant plant response rating",[11]; [27],0
same,"Plant response rating, Foxtail, Giant",[11]; [28],10
same,"Foxtail, Giant plant response rating",[11]; [29],0
same,"Foxtail, Giant plant response rating",[11]; [30],0
same,"Plant response rating, Velvetleaf",[12]; [25],0
same,Velvetleaf plant response rating,[12]; 125 g ai/ha,0
same,Velvetleaf plant response rating,[12]; 500 g ai/ha,0
same,"Plant response rating, Velvetleaf",[12]; [26],0
same,Pigweed plant response rating,[13]; [27],0
same,"Plant response rating, Pigweed",[13]; [28],15
same,Pigweed plant response rating,[13]; [30],0
same,Pigweed plant response rating,[13]; [31],0
same,"Plant response rating, Surinam Grass",[14]; [25],0
same,Surinam Grass plant response rating,[14]; 125 g ai/ha,0
same,Surinam Grass plant response rating,[14]; 500 g ai/ha,0
same,"Plant response rating, Surinam Grass",[14]; [26],0
same,Barnyardgrass plant response rating,[15]; [27],5
same,"Plant response rating, Barnyardgrass",[15]; [28],20
same,Barnyardgrass plant response rating,[15]; [29],5
same,Barnyardgrass plant response rating,[15]; [30],50
same,"Plant response rating, Barnyardgrass",[16]; [25],0
same,Barnyardgrass plant response rating,[16]; 125 g ai/ha,0
same,Barnyardgrass plant response rating,[16]; 500 g ai/ha,0
same,"Plant response rating, Barnyardgrass",[16]; [26],0
same,"Plant response rating, Lambsquarters",[17]; [25],0
same,Lambsquarters plant response rating,[17]; 125 g ai/ha,0
same,Lambsquarters plant response rating,[17]; 500 g ai/ha,0
same,"Plant response rating, Lambsquarters",[17]; [26],0
same,Ducksalad plant response rating,[18],50
same,"Plant response rating, Morningglory",[19]; [25],0
same,Morningglory plant response rating,[19]; 125 g ai/ha,0
same,Morningglory plant response rating,[19]; 500 g ai/ha,0
same,"Plant response rating, Morningglory",[19]; [26],0
same,"Sedge, Umbrella plant response rating",[20],30
same,Morningglory plant response rating,[21]; [27],0
same,"Plant response rating, Morningglory",[21]; [28],10
same,Morningglory plant response rating,[21]; [29],0
same,Morningglory plant response rating,[21]; [30],0
same,Velvetleaf plant response rating,[22]; [27],0
same,"Plant response rating, Velvetleaf",[22]; [28],10
same,Velvetleaf plant response rating,[22]; [30],0
same,Velvetleaf plant response rating,[22]; [31],0
same,"Oat, Wild plant response rating",[23]; 125 g ai/ha,0
same,"Oat, Wild plant response rating",[23]; 500 g ai/ha,0
same,"Plant response rating, Cocklebur",[24]; [25],0
same,Cocklebur plant response rating,[24]; 125 g ai/ha,0
same,Cocklebur plant response rating,[24]; 500 g ai/ha,0
same,"Plant response rating, Cocklebur",[24]; [26],0
